Laboratory results as given in patent US5872122A, “Pyrimidinylamidino β-amino acid derivatives useful as inhibitors of platelet aggregation” (Monsanto Company, priority 1997, dated 1999).

tested on: platelet aggregation; experiment: In-Vitro Platelet Aggregation in PRP (ADP-induced); type: cell-based; conditions: Canis lupus familiaris; dog platelet-rich plasma; ADP 50 μM final; 1 min preincubation at 37° C.; read-out: IC50 (dosage at which 50% of platelet aggregation is inhibited)
Method: Healthy male or female dogs were fasted for 8 hours prior to drawing blood; then 30 mL whole blood was collected using a butterfly needle and 30 mL plastic syringe with 3 mL of 0.129M buffered sodium citrate (3.8%). The syringe was rotated carefully as blood was drawn to mix the citrate. Platelet-rich plasma (PRP) was prepared by centrifugation at 975×g for 3.17 minutes at room temperature allowing the centrifuge to coast to a stop without braking. The PRP was removed from the blood with a plastic pipette and placed in a plastic-capped 50 mL Corning conical sterile centrifuge tube which was held at room temperature. Platelet-poor plasma (PPP) was prepared by centrifuging the remaining blood at 2000×g for 15 minutes at room temperature allowing the centrifuge to coast to a stop without braking. The PRP was adjusted with PPP to a count of 2-3×10^8 platelets/mL. The PRP preparation (400 μL) and 50 μL of the compound solution to be tested or saline were preincubated for 1 minute at 37° C. in a BioData aggregometer (BioData, Horsham, Pa.). Adenosine-5'-diphosphate (ADP, 50 μL, 50 μM final concentration) was added to the cuvettes and the aggregation was monitored for 1 minute. All compounds are tested in duplicate. Results are calculated as follows: Percent of control=[(maximal OD minus initial OD of compound) divided by (maximal OD minus initial OD of control saline)]×100. The percent inhibition equals 100-(percent of control).
The compounds tested and their median inhibitory concentrations (IC50) are recorded in Table 1. The IC50 (dosage at which 50% of platelet aggregation is inhibited) were calculated by linear regression of the dose response curve.

Compared with `N=C(N)c1cnc(CCCCC(=O)N[C@@H](CC(=O)O)C(=O)N[C@@H](Cc2ccccc2)C(N)=O)nc1` (relative stereo) [Ex. 1, [S,(R*,R*)]-3-[[5-[5-(aminoiminomethyl)-2-pyrimidinyl]-1-oxopentyl]amino]-4-[[2-amino-2-oxo-1-(phenylmethyl)ethyl]amino]-4-oxobutanoic acid], `N=C(N)c1cnc(CCCCC(=O)N[C@@H](CC(=O)O)C(=O)N[C@@H](Cc2ccccc2)C(=O)O)nc1` [Ex. 2] is 5.4-fold lower in IC50: 590 nM for the first, 110 nM for the second.

First: N=C(N)c1cnc(CCCCC(=O)NC(CC(=O)O)c2ccccc2)nc1 (stereo not drawn) [Ex. 3, β-[[5-[5-(aminoiminomethyl)-2-pyrimidinyl]-1-oxopentyl]amino]-phenylpropanoic acid]
Second: N=C(N)c1cnc(CCCCC(=O)NC(CC(=O)O)c2cccnc2)nc1 (stereo not drawn) [Ex. 6, β-[[5-[5-(aminoiminomethyl)-2-pyrimidinyl]-1-oxopentyl]amino]-3-pyridinepropanoic acid]
The IC50 of the first is 4.2-fold higher: 2200 nM for the first, 530 nM for the second.

Work on `N=C(N)c1cnc(CCCCC(=O)NCCC(=O)O)nc1` [Ex. 4, N-[5-[5-(aminoiminomethyl)-2-pyrimidinyl]-1-oxopentyl]-β-alanine] yielded an IC50 of 50000 nM.
